The results in this text go back to patent US20260001889A1, “COMPOSITIONS USEFUL FOR MODULATING SPLICING” (Skyhawk Therapeutics, Inc., priority 2022, published 2026).

One may read the IC50 as the concentration that inhibits the measured activity by half. Low values mean higher potency, high ones lower potency. As a reminder, the EC50 is the concentration at which the effect is half-maximal.

The first test relates to ATXN3 transcripts containing exon 4. Description: ATXN3 Quantitative Splicing Assay (qPCR, E4E5 primers/probe). Type of test: cell-based. The note with it: Homo sapiens, SK-N-MC cells, compounds for 24 h. How it is done:
Example 34: ATXN3 Quantitative Splicing Assay
Human neuroblastoma SK-N-MC cells were plated in 384-well plates at 20,000 cells/well. Twenty-four hours after plating, cells were treated with compounds for 24 h at appropriate concentrations ranging from 30 μM to 0.6 nM (0.300 DMSO). Treated cells were lysed in 15 μL of lysis buffer, and cDNA was synthesized using the Fast Advanced Cells-to-Ct kit. Two […] of each cDNA was used in qPCR reactions to confirm the exon 4 skipped transcripts of ATXN3. A second set of primers/probe E4E5 was used to detect the transcripts containing exon 4. The third set of primers/probe E8E9 was used to detect total gene level of ATXN3. The qPCR reactions were prepared in 384-well plates in 10 μL volume, using TaqMan™ Fast Advanced Master Mix with primers and probes shown in the table below. Reactions were run in a Quant Studio 6 qPCR instrument with default settings.
The primers and probes are listed below in Table 4.
Compound `COCc1oc2c(NCc3cccs3)cc(Cl)nc2c1Br` [Compound 360, 3-bromo-5-chloro-2-(methoxymethyl)-N-(thiophen-2-ylmethyl)furo[3,2-b]pyridin-7-amine] gave an IC50 of 5000 to 10000 nM.

On to `N[C@@H]1CC(F)(F)C[C@H]1c1oc2c(NCc3cccs3)cc(Cl)nc2c1Br` (single isomer, unassigned) [Compound 388], for which the IC50 is 101 to 500 nM. Turning to `COc1cccc(CNc2cc(Cl)nc3c(Br)c(C[C@H](C)N)oc23)c1F` [Compound 359, 2-[(S)-2-aminopropyl]-3-bromo-5-chloro-7-{[(2-fluoro-3-methoxyphenyl)methyl]amino}-1-oxa-4-azaindene], the IC50 is 10000 to 40000 nM. As for `N[C@H]1COC[C@@H]1c1oc2c(NCc3cccs3)cc(Cl)nc2c1Br` [Compound 373, 2-[(3R,4R)-4-aminotetrahydro-3-furyl]-3-bromo-5-chloro-7-thenylamino-1-oxa-4-azaindene], the IC50 is 101 to 500 nM. The compound `N[C@H]1CCC[C@@H]1c1oc2c(NCc3cccs3)cc(Cl)nc2c1Br` [Compound 170, 2-[(1S,2S)-2-aminocyclopentyl]-3-bromo-5-chloro-7-thenylamino-1-oxa-4-azaindene] gave an IC50 of 0.01 to 100 nM. On the same count and under the same terms, then `N[C@H]1CCCC[C@H]1c1cc2nc(Cl)cc(NCc3cccs3)c2o1` (racemic) [Compound 363, rac-2-[(1R,2S)-2-aminocyclohexyl]-5-chloro-N-(thiophen-2-ylmethyl)furo[3,2-b]pyridin-7-amine], with 501 to 5000 nM; and `N[C@H]1CC[C@@H]1c1oc2c(NCc3cccs3)cc(Cl)nc2c1Br` (racemic) [Compound 367, 2-(2-aminocyclobutyl)-3-bromo-5-chloro-N-(thiophen-2-ylmethyl)furo[3,2-b]pyridin-7-amine], with 101 to 500 nM. `C#Cc1c([C@H]2CCCC[C@@H]2N)oc2c(NCc3cccs3)cc(Cl)nc12` [Compound 385, 2-[(1S,2S)-2-aminocyclohexyl]-5-chloro-3-ethynyl-7-thenylamino-1-oxa-4-azaindene]: the IC50 lay in the range of 0.01 to 100 nM. Compound `C[C@H](N)Cc1oc2c(NCc3ccco3)cc(Cl)nc2c1-c1nnco1` [Compound 364, 2-[(2S)-2-aminopropyl]-5-chloro-N-(furan-2-ylmethyl)-3-(1,3,4-oxadiazol-2-yl)furo[3,2-b]pyridin-7-amine] returned an IC50 of 501 to 5000 nM. Take `Cc1c(C[C@H](C)N)oc2c(NCc3cccs3)cc(F)nc12` [Compound 404, 2-[(S)-2-aminopropyl]-5-fluoro-3-methyl-7-thenylamino-1-oxa-4-azaindene]: the IC50 is 101 to 500 nM.

The compound `Clc1cc(NCc2cccs2)c2oc(OCC3CCC3)c(Br)c2n1` [Compound 368, 3-bromo-5-chloro-2-(cyclobutylmethoxy)-N-(thiophen-2-ylmethyl)furo[3,2-b]pyridin-7-amine] displayed an IC50 of 501 to 5000 nM. Same read-out and setting: the value for `N[C@H]1CC(F)(F)C[C@@H]1c1oc2c(NCc3cccs3)cc(Cl)nc2c1Br` (single isomer, unassigned) [Compound 369] was 5000 to 10000 nM; that for `N[C@H]1CC[C@@H]1c1oc2c(NCc3cccs3)cc(Cl)nc2c1Br` (single isomer, unassigned) [Compound 291] was 101 to 500 nM; that for `N[C@@H]1CCCC[C@H]1c1oc2c(NCc3cccs3)cc(Cl)nc2c1Br` [Compound 176, 2-[(1R,2R)-2-aminocyclohexyl]-3-bromo-5-chloro-7-thenylamino-1-oxa-4-azaindene] was 501 to 5000 nM. The compound `C[C@H](N)Cc1oc2c(NCc3ccco3)cc(Cl)nc2c1C(=O)N(C)C` [Compound 357, 2-[(2S)-2-aminopropyl]-5-chloro-7-[(furan-2-ylmethyl)amino]-N,N-dimethylfuro[3,2-b]pyridine-3-carboxamide] came in with an IC50 of 10000 to 40000 nM. Same read-out and setting: then `C[C@H](N)Cc1oc2c(NCc3ccco3)cc(Cl)nc2c1-c1ncc(C#N)o1` [Compound 366, 2-{2-[(2S)-2-aminopropyl]-5-chloro-7-[(furan-2-ylmethyl)amino]furo[3,2-b]pyridin-3-yl}-1,3-oxazole-5-carbonitrile], with 10000 to 40000 nM. The compound `COc1cccc(CNc2cc(Cl)nc3c(Br)c(C[C@H](C)N)oc23)c1` [Compound 362, 2-[(S)-2-aminopropyl]-3-bromo-5-chloro-7-{[(m-methoxyphenyl)methyl]amino}-1-oxa-4-azaindene] displayed an IC50 of 5000 to 10000 nM.

Regarding `N[C@@H]1CC[C@H]1c1oc2c(NCc3cccs3)cc(Cl)nc2c1Br` (single isomer, unassigned) [Compound 290], the IC50 lay in the range of 501 to 5000 nM. On the same count and under the same terms, the value for `N[C@H]1CCCC[C@@H]1c1oc2c(NCc3cccs3)cc(Cl)nc2c1Br` [Compound 174, 2-[(1,2S)-2-aminocyclohexyl]-3-bromo-5-chloro-7-thenylamino-1-oxa-4-azaindene] was 0.01 to 100 nM. The compound `C[C@H](F)[C@H](N)Cc1oc2c(NCc3cccs3)cc(C#N)nc2c1Cl` [Compound 104, 2-[(2R,3S)-2-amino-3-fluorobutyl]-3-chloro-7-thenylamino-1-oxa-4-aza-5-indenecarbonitrile] had an IC50 of 101 to 500 nM.

For a further test, the system named is ATXN3-HiBiT protein. Description: ATXN3 Total Protein Assay (Kelly-ATXN3-HiBiT luminescence). Type of test: cell-based. The note with it: Kelly-ATXN3-HiBiT cells, 48 h after addition of compound. From the text: Example 36: ATXN3 Total Protein Assay
To monitor ATXN3 protein levels by luminescence, a Kelly-ATXN3-HiBiT cell line with homozygous knock-in of HiBiT at the C-terminus of the endogenous ATXN3 gene was used (knock-in of the HiBiT-tag coding sequence SEQ ID NO. 14: 5′[…]3′ into exon 11 of ATXN3-position 1114 of ATXN3 RefSeq NM_004993.6). Manipulations of the Kelly-ATXN3-HiBiT cell line that result in downregulation of the ATXN3-HiBiT protein (through modulation of ATXN3-HiBiT pre-mRNA splicing) can be followed by monitoring the luminescence signal of the HiBiT tag using the Nano Glo HiBiT Lytic Detection System (Promega, #N3050). Kelly-ATXN3-HiBiT cells were maintained in RPMI 1640 w/Glutamax (Gibco, #61870010), 10% FBS (Sigma Aldrich, #F8687), 1% Penicillin/Streptomycin (Gibco, #15140-122) at 37° C., 5% CO2. To assess HiBiT-luminescence signal upon compound treatment, 2000 Kelly-ATXN3-HiBiT cells were seeded per well in 384 plate format. Compounds were added 24 h after seeding. ATXN3-HiBiT-luminescence signal was read out 48 h after addition of the compound using the Nano Glo HiBiT Lytic Detection System (Promega, #N3050) according to the manufacturer's instructions. To control for cell viability, an identically prepared sister plate was read out with the CellTiter-Glo® 2.0 Assay (Promega, #G9243) according to the manufacturer's instructions. Fold changes of ATXN3-HiBiT-luminescence and of CellTiter-Glo viability signals were calculated relative to a DMSO control condition.
In general terms: HiBiT is a short tag that completes a luciferase, so light tracks the accessible tagged protein.
In turn, `COC1([C@H](N)Cc2oc3c(NCc4cccs4)cc(Cl)nc3c2Br)CC1` [Compound 144, 2-[(R)-2-amino-2-(1-methoxycyclopropyl)ethyl]-3-bromo-5-chloro-7-thenylamino-1-oxa-4-azaindene] came in with an EC50 of 10000 to 40000 nM. Regarding `COC(C)c1oc2c(NCc3cccs3)cc(Cl)nc2c1Br` (stereo not shown) [Compound 356, 3-bromo-5-chloro-2-(1-methoxyethyl)-N-(thiophen-2-ylmethyl)furo[3,2-b]pyridin-7-amine], the EC50 was 10000 to 40000 nM. Same read-out and setting: then `[2H]C([2H])([2H])OC[C@H](N)Cc1oc2c(NC([2H])([2H])c3cccs3)cc(Cl)nc2c1Br` [Compound 249, 2-[(R)-2-amino-3-(^2H3)methoxypropyl]-3-bromo-5-chloro-7-{[(2-thienyl)(^2H2)methyl]amino}-1-oxa-4-azaindene], with 0.01 to 100 nM; and `COCC[C@H](N)Cc1oc2c(NCc3cccs3)cc(Cl)nc2c1Br` [Compound 147, 2-[(S)-2-amino-4-methoxybutyl]-3-bromo-5-chloro-7-thenylamino-1-oxa-4-azaindene], with 0.01 to 100 nM; and `[2H]C([2H])([2H])C(N)Cc1oc2c(NCc3cccs3)cc(Cl)nc2c1C#C` (stereo not shown) [Compound 269, 2-[2-amino(3,3,3-^2H3)propyl]-5-chloro-3-ethynyl-7-thenylamino-1-oxa-4-azaindene], with 0.01 to 100 nM. `[2H]C([2H])([2H])[C@@H](N)Cc1oc2c(NCc3cccs3)cc(Cl)nc2c1Br` [Compound 232, 2-[(R)-2-amino(3,3,3-^2H3)propyl]-3-bromo-5-chloro-7-thenylamino-1-oxa-4-azaindene] had an EC50 of 101 to 500 nM. For the compound `[2H]C([2H])([2H])C(N)Cc1oc2c(NCc3cccs3)cc(Cl)nc2c1Br` (stereo not shown) [Compound 230, 2-[2-amino(3,3,3-^2H3)propyl]-3-bromo-5-chloro-7-thenylamino-1-oxa-4-azaindene], the 50% effective concentration (EC50) was 0.01 to 100 nM.

`[2H][C@](N)(COC)Cc1oc2c(NCc3cccs3)cc(Cl)nc2c1C#C` [Compound 287, 2-[(R)-2-amino-3-methoxy(2-^2H)propyl]-5-chloro-3-ethynyl-7-thenylamino-1-oxa-4-azaindene]: the EC50 lay within 0.01 to 100 nM.
